Test results as given in ChEMBL document CHEMBL2074197, “Molecular and functional characterization of an organic anion transporting polypeptide cloned from human liver” (Gastroenterology, 1995).

Tests used:
[1] = molecular target: T1, Solute carrier organic anion transporter family member 1A2 (Homo sapiens, UniProt P46721); experiment: TP_TRANSPORTER: inhibition of BSP uptake (BSP: 10 uM, CDCA: 200 uM) in Xenopus laevis oocytes; assay type: functional, cell-based; design: scale not given: the % may be the effect or the level left; details: oocyte
T1 sequence (P46721 whole entry): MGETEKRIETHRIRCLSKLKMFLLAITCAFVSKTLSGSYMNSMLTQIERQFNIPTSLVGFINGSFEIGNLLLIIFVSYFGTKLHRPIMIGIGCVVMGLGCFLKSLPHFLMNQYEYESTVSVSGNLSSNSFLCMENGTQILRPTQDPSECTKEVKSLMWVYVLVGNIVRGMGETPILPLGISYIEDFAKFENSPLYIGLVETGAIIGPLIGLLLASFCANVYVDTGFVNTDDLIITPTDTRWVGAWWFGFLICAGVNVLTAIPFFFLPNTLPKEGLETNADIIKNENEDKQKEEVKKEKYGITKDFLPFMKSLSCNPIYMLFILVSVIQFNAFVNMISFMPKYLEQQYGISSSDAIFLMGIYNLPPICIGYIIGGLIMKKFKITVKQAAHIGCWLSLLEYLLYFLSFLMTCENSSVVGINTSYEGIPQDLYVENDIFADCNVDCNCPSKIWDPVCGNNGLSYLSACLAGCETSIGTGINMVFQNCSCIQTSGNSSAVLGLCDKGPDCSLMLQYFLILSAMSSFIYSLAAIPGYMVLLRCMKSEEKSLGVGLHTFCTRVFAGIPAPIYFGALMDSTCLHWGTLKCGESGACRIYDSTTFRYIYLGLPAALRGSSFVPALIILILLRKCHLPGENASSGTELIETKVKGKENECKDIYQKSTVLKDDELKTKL

[2] = molecular target: T1, Solute carrier organic anion transporter family member 1A2; experiment: TP_TRANSPORTER: inhibition of Taurocholate uptake (Taurochorate: 10 uM, CDCA: 200 uM) in Xenopus laevis oocytes; assay type: functional, cell-based; design: scale not given: the % may be the effect or the level left; details: oocyte
[3] = molecular target: T2, Solute carrier organic anion transporter family member 1A2 (OATP1A2) (Homo sapiens, UniProt P46721); experiment: TP_TRANSPORTER: inhibition of Taurocholate uptake (Taurochorate: 10 uM, GC: 200 uM) in Xenopus laevis oocytes; assay type: functional, cell-based, Oocyte; design: scale not given: the % may be the effect or the level left; details: Xenopus laevis oocytes expressing OATP1A2 (SLCO1A2), probe taurocholate, read-out: Activity
T2 sequence (P46721 whole entry): T1 sequence (P46721 whole entry)

[4] = molecular target: T1, Solute carrier organic anion transporter family member 1A2; experiment: TP_TRANSPORTER: inhibition of BSP uptake (BSP: 10 uM, GC: 100 uM) in Xenopus laevis oocytes; assay type: functional, cell-based; design: scale not given: the % may be the effect or the level left; details: oocyte
[5] = molecular target: T2, Solute carrier organic anion transporter family member 1A2 (OATP1A2); experiment: TP_TRANSPORTER: inhibition of Taurocholate uptake (Taurochorate: 10 uM, ICG: 100 uM) in Xenopus laevis oocytes; assay type: functional, cell-based, Oocyte; design: scale not given: the % may be the effect or the level left; details: Xenopus laevis oocytes expressing OATP1A2 (SLCO1A2), probe taurocholate, read-out: Activity
[6] = molecular target: T2, Solute carrier organic anion transporter family member 1A2 (OATP1A2); experiment: TP_TRANSPORTER: inhibition of BSP uptake (BSP: 10 uM, ICG: 100 uM) in Xenopus laevis oocytes; assay type: functional, cell-based, Oocyte; design: scale not given: the % may be the effect or the level left; details: Xenopus laevis oocytes expressing OATP1A2 (SLCO1A2), probe BSP (sulfobromophthalein), read-out: Activity
[7] = molecular target: T2, Solute carrier organic anion transporter family member 1A2 (OATP1A2); experiment: TP_TRANSPORTER: uptake in Xenopus laevis oocytes; assay type: functional, cell-based, Oocyte; details: Xenopus laevis oocytes expressing OATP1A2 (SLCO1A2)
[8] = molecular target: T2, Solute carrier organic anion transporter family member 1A2 (OATP1A2); experiment: TP_TRANSPORTER: inhibition of BSP uptake (BSP: 10 uM, TCDC: 100 uM) in Xenopus laevis oocytes; assay type: functional, cell-based, Oocyte; design: scale not given: the % may be the effect or the level left; details: Xenopus laevis oocytes expressing OATP1A2 (SLCO1A2), probe BSP (sulfobromophthalein), read-out: Activity
[9] = molecular target: T2, Solute carrier organic anion transporter family member 1A2 (OATP1A2); experiment: TP_TRANSPORTER: inhibition of Taurocholate uptake (Taurochorate: 10 uM, TCDC: 100 uM) in Xenopus laevis oocytes; assay type: functional, cell-based, Oocyte; design: scale not given: the % may be the effect or the level left; details: Xenopus laevis oocytes expressing OATP1A2 (SLCO1A2), probe taurocholate, read-out: Activity
[10] = molecular target: T2, Solute carrier organic anion transporter family member 1A2 (OATP1A2); experiment: TP_TRANSPORTER: inhibition of Taurocholate uptake (Taurochorate: 10 uM, TUDC: 100 uM) in Xenopus laevis oocytes; assay type: functional, cell-based, Oocyte; design: scale not given: the % may be the effect or the level left; details: Xenopus laevis oocytes expressing OATP1A2 (SLCO1A2), probe taurocholate, read-out: Activity
[11] = molecular target: T2, Solute carrier organic anion transporter family member 1A2 (OATP1A2); experiment: TP_TRANSPORTER: inhibition of BSP uptake (BSP: 10 uM, TUDC: 100 uM) in Xenopus laevis oocytes; assay type: functional, cell-based, Oocyte; design: scale not given: the % may be the effect or the level left; details: Xenopus laevis oocytes expressing OATP1A2 (SLCO1A2), probe BSP (sulfobromophthalein), read-out: Activity
[12] = molecular target: T2, Solute carrier organic anion transporter family member 1A2 (OATP1A2); experiment: TP_TRANSPORTER: inhibition of BSP uptake (BSP: 10 uM, UDCA: 100 uM) in Xenopus laevis oocytes; assay type: functional, cell-based, Oocyte; design: scale not given: the % may be the effect or the level left; details: Xenopus laevis oocytes expressing OATP1A2 (SLCO1A2), probe BSP (sulfobromophthalein), read-out: Activity
[13] = molecular target: T1, Solute carrier organic anion transporter family member 1A2; experiment: TP_TRANSPORTER: inhibition of Taurocholate uptake (Taurochorate: 10 uM, UDCA: 200 uM) in Xenopus laevis oocytes; assay type: functional, cell-based; design: scale not given: the % may be the effect or the level left; details: oocyte

## C[C@H](CCC(=O)O)[C@H]1CC[C@H]2[C@@H]3[C@H](O)C[C@@H]4C[C@H](O)CC[C@]4(C)[C@H]3CC[C@]12C [CHENODIOL]
[1]
  Activity: 34%
[2]
  Activity: 15%

## C[C@H](CCC(=O)NCC(=O)O)[C@H]1CC[C@H]2[C@@H]3[C@H](O)C[C@@H]4C[C@H](O)CC[C@]4(C)[C@H]3C[C@H](O)[C@]12C [GLYCOCHOLIC ACID]
[3]
  activity at 200 µM: 24%
[4]
  Activity: 81%

## CC1(C)C(/C=C/C=C/C=C/C=C2\N(CCCCS(=O)(=O)O)c3ccc4ccccc4c3C2(C)C)=[N+](CCCCS(=O)(=O)[O-])c2ccc3ccccc3c21 [INDOCYANINE GREEN]
[5]
  activity at 100 µM: 28%
[6]
  activity at 100 µM: 60%

## O=C1OC(c2ccc(O)c(S(=O)(=O)O)c2)(c2ccc(O)c(S(=O)(=O)O)c2)c2c(Br)c(Br)c(Br)c(Br)c21 [SULFOBROMOPHTHALEIN SODIUM]
[7]
  Km: 20 µM

## C[C@H](CCC(=O)NCCS(=O)(=O)O)[C@H]1CC[C@H]2[C@@H]3[C@H](O)C[C@@H]4C[C@H](O)CC[C@]4(C)[C@H]3CC[C@]12C [TAUROCHENODEOXYCHOLATE]
[8]
  activity at 100 µM: 17%
[9]
  activity at 100 µM: 28%

## C[C@H](CCC(=O)NCCS(=O)(=O)O)[C@H]1CC[C@H]2[C@@H]3[C@@H](O)C[C@@H]4C[C@H](O)CC[C@]4(C)[C@H]3CC[C@]12C [TAURURSODIOL]
[10]
  activity at 100 µM: 9%
[7]
  Km: 19 µM
[11]
  activity at 100 µM: 9%

## C[C@H](CCC(=O)O)[C@H]1CC[C@H]2[C@@H]3[C@@H](O)C[C@@H]4C[C@H](O)CC[C@]4(C)[C@H]3CC[C@]12C [URSODIOL]
[12]
  activity at 100 µM: 57%
[13]
  Activity: 14%
